Measured values reported in patent EP3810127B1, “USE OF MILBEMYCIN OXIME AGAINST SEA LICE ON FISH” (Pharmaq AS, priority 2018, dated 2019).
Where two headings read alike, the source gives them in different places.

Tests used:
sea lice [1] = settings: injectable composition, cited from earlier work
sea lice [2] = settings: cited from earlier work
salmon lice = settings: one hour bath on Day 1, lice counted on Day 3
[3] = tested on: adult stages of L. salmonis; assay: in-vivo bath exposure of Atlantic salmon infested with adult lice; settings: one hour bath, female lice counted on Day 3
Description: In a separate in-vivo study, Atlantic salmon infested with adult stages of L. salmonis were housed in a 500L tank with sea water at 12°C before drug exposure. Fish were randomly extracted from the holding tank and distributed to the treatment containers (n=14/container). […] Fish were then transferred to observation tanks. Fish were dosed with 500ppb, 250ppb, 125ppb, and 62.5ppb milbemycin oxime. […] On Day 3, fish were terminated and the number of female salmon lice were counted on each of the fish. Milbemycin oxime was 100% efficacious against the sea lice at all dose levels.

[4] = tested on: adult reduced sensitivity lice; assay: in-vitro 1 hour exposure of adult lice in sea water; design: species or system salmon lice; settings: exposed 1 hour, 48 hours post-exposure
[5] = tested on: preadult salmon lice with reduced sensitivity; assay: in-vitro 1 hour exposure of preadult lice in sea water
[6] = tested on: copepodids from salmon lice with reduced sensitivity; assay: in-vitro 1 hour exposure of copepodids in sea water; settings: exposed 1 hour, 96 hours post-exposure

**Q.** With `O=C(NC(=O)c1c(F)cccc1F)Nc1cc(Cl)c(OC(F)(F)C(F)F)c(Cl)c1` [hexaflumuron] as the compound, how does the “efficacy against sea lice” value (sea lice [1]; 50mg/kg) read?
**A.** provided efficacy

**Q.** For “23(S)-t-butyloxyimino-25(S)-t-butyl milbemycin X [VS55759]”, which “efficacious against sea lice” value (sea lice [2]; 0.1ppm (100ppb) in a bath solution) is on record?
**A.** efficacious

**Q.** And the “effective against sea lice” value (sea lice [2]; 100ppb dose, immersion)?
**A.** 100%

**Q.** Which results are given for milbemycin oxime?
**A.** efficacious against adult sea lice (salmon lice; 7.8ppb): 100%; Efficacy (salmon lice; 15.6ppb, remaining living lice loosely attached to the caudal fin): 66.6%; efficacious against adult sea lice (salmon lice; 31.3ppb): 100%; efficacious against adult sea lice (salmon lice; 62.5ppb): 100%; efficacious against the sea lice ([3]; 62.5ppb): 100%; efficacious against the sea lice ([3]; 125ppb): 100%; efficacious against the sea lice ([3]; 250ppb): 100%; efficacious against the sea lice ([3]; 500ppb): 100%; moribund rate ([4]; 2ppb): 82%; state of adult lice ([4]; 10ppb): all dead or moribund; state of adult lice ([4]; 25ppb): all dead or moribund; state of preadult lice ([5]; 5ppb, exposed 1 hour, 48 hours post-exposure): all were moribund; more effective at killing sea lice than VS55759 ([5]; milbemycin oxime at 5ppb compared with VS55759 at 50ppb (60% morbidity)): at least 10 x; state of copepodids ([6]; 12.5ppb): moribund; state of copepodids ([6]; 25ppb): moribund; state of copepodids ([6]; 50ppb): moribund; efficacy against sea lice (sea lice [1]; dose of 0.5mg/kg): not efficacious

**Q.** For `O=C(NC(=O)c1c(F)cccc1F)Nc1cc(Cl)c(OC(F)(F)C(F)C(F)(F)F)cc1Cl` (stereo not drawn) [lufenuron], which “efficacy against sea lice” value (sea lice [1]; 50mg/kg) is on record?
**A.** provided efficacy
